Data taken from patent publication EP2987533B1, “7-substituted piperazin-1-yl fluoroquinolone compounds, their use in the treatment of cancer, pharmaceutical compositions and a method for preparation” (priority 2014, dated 2016).

Test system: 60 human tumor cell line panel
Assay: NCI 60 cell line one-dose SRB primary anticancer assay
Format: cell-based
Conditions: 60 cell lines assay in one dose, 10µM (title; head prints 10.0 mM), 48 h; for inhibition at 10 µM: Homo sapiens, read-out: MGI % (Mean growth inhibition percentage)
Procedure: A primary anticancer assay was performed for an approximately 60 human tumor cell line panel derived from nine neoplastic diseases, in accordance with the protocol of the Drug Evaluation Branch, National Cancer Institute, Bethesda, MD (Monks A. et al., J. Natl. Cancer Inst 1991, 83, 757-766; Boyd M.R. and Paull K.D., Drug. Dev. Res. 1995, 34, 91-109; Shoemaker R.H., Nat. Rev. Cancer 2006, 6, 813-823). Briefly, tested compounds were added to the culture at a single concentration (10^-5M), and the cultures were incubated for 48 h. End point determinations were made with a protein binding dye, sulforhodamine B (SRB). The results for each tested compound were reported as the growth percentage of the treated cells when compared to that of the untreated control cells. The percentage growth was evaluated spectrophotometrically versus controls not treated with test agents.

| SMILES | Most sensitive cell lines | PCE (Positive cytotoxic effect: ratio between number of cell lines with percentage growth inhibition from 10 to >100 and total number of cell lines) | RGI % (Range of growth inhibition percentage) | inhibition at 10 µM |
| --- | --- | --- | --- | --- |
| O=C(O)c1cn(C2CC2)c2cc(N3CCN(CCCN4C(=O)c5ccccc5C4=O)CC3)c(F)cc2c1=O [Compound 10b] | Leukemia (CCRF-CEM, PRMI-8226), Renal Cancer (UO-31) | 3/57 | 38.76 to 13.64% | -4.16% |
| COc1ccc(S(=O)(=O)N2CCN(c3cc4c(cc3F)c(=O)c(C(=O)O)cn4C3CC3)CC2)c(OC)c1 [Compound 5b] | Leukemia (CCRF-CEM, HL-60(TB), K-562, MOLT-4, PRMI-8226, SR), NSC Lung Cancer (HOP-62, NCI-H226), CNS Cancer (SF-268, SF-539, SNB-19, SNB-75), Melanoma (LOX IMVI, SK-MEL-5, UACC-62), Renal Cancer (A498, UO-31), Breast Cancer (T-47D, MDA-MB-468) | 19/58 | 46.83 to 10.48% | 7.33% |
| O=C(O)c1cn(C2CC2)c2cc(N3CCN(CCN4CCOCC4)CC3)c(F)cc2c1=O [Compound 8b] | NSC Lung Cancer (HOP-92, NCI-H522), Melanoma ( MALME-3M), Renal Cancer (UO-31), Prostate Cancer (PC-3) | 5/57 | 24.51 to 10.05% | -2.2% |
| COc1ccc(S(=O)(=O)N2CCN(c3cc4c(cc3F)c(=O)c(C(=O)O)cn4C3CC3)CC2)cc1OC [Compound 4b] | NSC Lung Cancer (HOP-62, HOP-92), CNS Cancer (SNB-75), Melanoma (LOX IMVI), Renal Cancer (UO-31), Breast Cancer (T-47D) | 6/58 | 35.09 to 10.43% | 1.84% |
| O=C(O)c1cn(C2CC2)c2cc(N3CCNCC3)c(F)cc2c1=O [Ciprofloxacin (b), Ciprofloxacin, reference compound] | Renal Cancer (UO-31, A498) | 2/57 | 28.85 to 13.76% | -1.41% |
| CCn1cc(C(=O)O)c(=O)c2cc(F)c(N3CCN(S(=O)(=O)c4ccc(OC)c(OC)c4)CC3)cc21 [Compound 4a] | Leukemia (MOLT-4, SR), CNS Cancer (SF-268, SNB-75) Melanoma (LOX IMVI, M14), Renal Cancer (UO-31), Prostate Cancer (PC-3), Breast Cancer (T-47D) | 9/58 |  | 2.33% |
| O=C(O)c1cn(C2CC2)c2cc(N3CCN(S(=O)(=O)c4ccc(Cl)cc4)CC3)c(F)cc2c1=O [Compound 1b] | Melanoma (LOX IMVI, M14), Renal Cancer (A498, CAKI-1, UO-31), Prostate Cancer (PC-3), Breast Cancer (T-47D) | 7/53 | 59.75 to 10.12% | 3.5% |
| O=C(O)c1cn(C2CC2)c2cc(N3CCN(CCN4C(=O)c5ccccc5C4=O)CC3)c(F)cc2c1=O [Compound 9b] | CNS Cancer (SNB-75), Renal Cancer (UO-31), Breast Cancer (MCF7) | 3/58 | 36.83 to 13.18% | -2.69% |
